These results are taken from patent US6828475B1, “Nucleic acid sequences encoding a plant cytoplasmic protein involved in fatty acyl-CoA metabolism” (Calgene LLC, priority 1994, dated 2004).

The subject of one data set is jojoba wax synthase. Kind of data set: Wax synthase assay in jojoba microsomal membrane fraction. The data set is classed as biochemical. Particulars: for Wax synthase Activity, Acyl Group: 80 μM acyl-CoA substrate, 100 μM radiolabeled oleyl alcohol; for Wax synthase Activity, Acyl Group / Wax synthase Activity, Alcohol Group: microsomal membrane fraction; for Wax synthase Activity, Alcohol Group: 100 μM alcohol substrate, 40 μM radiolabeled eicosenoyl-CoA. The procedure:
Wax synthase activity in a microsomal membrane preparation is measured by incubation of 40 μM [1-^14C] acyl-CoA (usually palmitoyl-CoA, sp. act. 5.1-5.6 mCi/mmol) and 200 μM oleyl alcohol with the sample to be assayed in a total volume of 0.25 ml. The incubation mixture also contains 20% w/v glycerol, 1 mM DTT, 0.5M NaCl and is buffered with 25 mM HEPES (4-[2-hydroxyethyl]-1-piperazineethane-sulfonic acid). HEPES, here and as referred to hereafter is added from a 1M stock solution adjusted to pH 7.5.
A substrate mixture is prepared in a glass vial, with oleyl alcohol being added immediately before use, and is added to samples. Incubation is carried out at 30° C. for one hour. The assay is terminated by placing the assay tube on ice and immediately adding 0.25 ml isopropanol:acetic acid (4:1 v/v). Unlabeled wax esters (0.1 mg) and oleyl alcohol (0.1 mg) are added as carriers. The [^14C] lipids are extracted by the scaled-down protocol of Hara and Radin (Anal. Biochem. (1978) 90:420). Four ml of hexane/isopropanol (3:2, v/v) is added to the terminated assay. The sample is vortexed, 2 ml of aqueous sodium sulphate solution (6.6% w/v) is added, and the sample is again vortexed.
1. Extensive Analysis: Following addition of the sodium sulphate and vortexing the sample, the upper organic phase is removed and the lower aqueous phase is washed with 4 ml hexane/isopropanol (7:2 v/v). The organic phases are pooled and evaporated to dryness under nitrogen. The lipid residue is resuspended in a small volume of hexane, and an aliquot is assayed for radioactivity by liquid scintillation counting. The remainder of the sample can be used for TLC analysis of the labeled classes and thereby give a measure of total wax produced.
For lipid class analysis the sample is applied to a silica TLC plate, and the plate is developed in hexane/diethyl ether/acetic acid (80:20:1 v/v/v). The distribution of radioactivity between the lipid classes, largely wax esters, free fatty acids, fatty alcohols, and polar lipids at the origin, is measured using an AMBIS radioanalytic imaging system (AMBIS Systems Inc., San Diego, Calif.). If necessary the individual lipid classes can be recovered from the TLC plate for further analysis. Reversed-phase TLC systems using C18 plates developed in methanol have also been used for the analysis.
2. Quick Analysis: Following addition of the sodium sulfate and vortexing the sample, a known percentage of the organic phase is removed and counted via liquid scintillation counting. This calculation is used to estimate the total counts in the organic phase. Another portion of the organic phase is then removed, dryed down under nitrogen, redissolved in hexane and spotted on TLC plates and developed and scanned as described for the detailed assay. In this manner the percentage of the total counts which are incorporated into wax is determined.
Acyl-CoA and alcohol substrates having varying carbon chain lengths and degrees of unsaturation were added to a microsomal membrane fraction having wax synthase activity to determine the range of substrates recognized by the jojoba wax synthase. Wax synthase activity was measured as described in Example 1, with acyl specificity measured using 80 μM of acyl-CoA substrate and 100 μM of radiolabeled oleyl alcohol. Alcohol specificity was measured using 100 μM of alcohol substrate and 40 μM of radiolabeled eicosenoyl-CoA.

The test system of data set [1] is NADH-dependent fatty acyl-CoA reductase. As to the kind of experiment: NADH-dependent fatty acyl-CoA reductase assay, solubilized microsomal membranes. The data set is classed as biochemical, Euglena gracilis. Particulars: in the assay at levels above the CMC (approximately 0.5% (w/v)). The procedure:
For example, an NADH-dependent fatty acyl-CoA reductase activity can be obtained from microsomal membranes isolated from Euglena gracilis. Methods which may be used to isolate microsomal membranes are described, for example in the published PCT patent application WO 92/14816 (application number PCT/US92/03164, filed Feb. 21, 1992). The reductase activity is solubilized from these membranes using the same approaches as used for jojoba reductase and wax synthase. Membranes are incubated on ice for one hour with various amounts of the detergent, CHAPS, in a buffering solution consisting of 25 mM BisTris, pH 6.9, 250 mM NaCl, 10% glycerol and 1 mM EDTA. The sample is then centrifuged at 200,000×g for one hour, and the supernatant and pellet fractions assayed for NADH-dependent reductase activity using radiolabeled palmitoyl-CoA and NADH as substrates. A convenient assay for reductase activity is described in PCT patent application WO 92/14816. Incubation of the membranes with 0.3, 0.5 or 0.7 % (w/v) CHAPS results in retention of reductase activity in the supernatant fractions, indicative of solubilization of the enzyme. If CHAPS is omitted during the incubation and centrifugation, all of the reductase activity is found in the pellet fraction. All of the samples are diluted ten-fold in this same buffer solution prior to assaying in order to dilute the CHAPS present during the incubation.

In the case of “jojoba wax synthase (microsomal membrane fraction having wax synthase activity) (pool or library)”, in the data set with palmitoyl-ACP, the wax synthase activity (% of that with acyl-CoA) turned out to be 10.

Regarding `CCCCCCCCCCCCCCCC(=O)SCCNC(=O)CCNC(=O)[C@H](O)C(C)(C)COP(=O)(O)OP(=O)(O)OC[C@H]1O[C@@H](n2cnc3c(N)ncnc32)[C@H](O)[C@@H]1OP(=O)(O)O` [palmitoyl-CoA], the “wax synthase activity towards acyl-thioester substrates” value in the data set with jojoba wax synthase (as acyl substrate) is given as “greatest activity”.

As to `CCCCCCCCCCCCCCCCCC(=O)SCCNC(=O)CCNC(=O)[C@H](O)C(C)(C)COP(=O)(O)OP(=O)(O)OC[C@H]1O[C@@H](n2cnc3c(N)ncnc32)[C@H](O)[C@@H]1OP(=O)(O)O` [18:0], in the data set on jojoba wax synthase, the “Wax synthase Activity, Acyl Group” value stood at 51 pmol/min and the “Wax synthase Activity, Alcohol Group” value was determined as 56 pmol/min.

For the compound `CCNC(=O)/C=C\C(N)=O` [N-ethylmaleamide], the “effect of sulphydryl agents on wax synthase activity (inhibition)” value (“effect of sulphydryl agents … (inhibition)” below) with jojoba wax synthase is “much less effective”.

In the case of palmitoyl-ACP, the “wax synthase activity relative to acyl-CoA” value in the data set with jojoba wax synthase (as acyl substrate) is ~10 % of that with acyl-CoA.

Consider `CCCCCCCCCCCC(=O)SCCNC(=O)CCNC(=O)[C@H](O)C(C)(C)COP(=O)(O)OP(=O)(O)OC[C@H]1O[C@@H](n2cnc3c(N)ncnc32)[C@H](O)[C@@H]1OP(=O)(O)O` [12:0], for which, in the data set on jojoba wax synthase, the “Wax synthase Activity, Acyl Group” value was determined as 12 pmol/min and the “Wax synthase Activity, Alcohol Group” value was 100 pmol/min.

As for `O=C(O)c1cc[c]([Hg][OH])cc1` [para-hydroxymercuribenzoate], in the data set with jojoba wax synthase, the “effect of sulphydryl agents … (inhibition)” value was “Inhibition”. Besides, the “reversal of inhibition of wax synthase activity” value in the data set on jojoba wax synthase (subsequent addition of DTT) is on record as “could be reversed”.

On to `CCCCCCCCCCCCCCCC(=O)SCCNC(C)=O` [N-acetyl-S-palmitoyl cysteamine], for which the “wax synthase activity towards acyl-thioester substrates” value in the data set on jojoba wax synthase (as acyl substrate) is on record as “no activity was detectable”.

In the case of `CCCCCCCCCCCCCC(=O)SCCNC(=O)CCNC(=O)[C@H](O)C(C)(C)COP(=O)(O)OP(=O)(O)OC[C@H]1O[C@@H](n2cnc3c(N)ncnc32)[C@H](O)[C@@H]1OP(=O)(O)O` [14:0], in the data set on jojoba wax synthase, the “Wax synthase Activity, Acyl Group” value was determined as 95 pmol/min and the “Wax synthase Activity, Alcohol Group” value is 145 pmol/min.

Consider `NC(=O)CI` [Iodoacetamide], for which the “effect of sulphydryl agents … (inhibition)” value in the data set on jojoba wax synthase was “much less effective”.

As to `CCCCCCCCCCCCCCCCCCCCCC(=O)SCCNC(=O)CCNC(=O)[C@H](O)C(C)(C)COP(=O)(O)OP(=O)(O)OC[C@H]1O[C@@H](n2cnc3c(N)ncnc32)[C@H](O)[C@@H]1OP(=O)(O)O` [22:0], in the data set with jojoba wax synthase, the “Wax synthase Activity, Acyl Group” value was determined as 46 pmol/min and the “Wax synthase Activity, Alcohol Group” value came out at 17 pmol/min.

For the compound `CCCCCCCCCCCCCCCC(=O)SCCNC(=O)CCNC(=O)[C@H](O)C(C)(C)COP(=O)(O)OP(=O)(O)OC[C@H]1O[C@@H](n2cnc3c(N)ncnc32)[C@H](O)[C@@H]1OP(=O)(O)O` [16:0], in the data set with jojoba wax synthase, the “Wax synthase Activity, Acyl Group” value is 81 pmol/min and the “Wax synthase Activity, Alcohol Group” value came out at 107 pmol/min.

`C[C@H](CCC(=O)NCCC[N+](C)(C)CCCS(=O)(=O)[O-])[C@H]1CC[C@H]2[C@@H]3[C@H](O)C[C@@H]4C[C@H](O)CC[C@]4(C)[C@H]3C[C@H](O)[C@]12C` [CHAPS, 3-[(3-cholamidopropyl)-dimethyl-ammonio]-1-propanesulfonate]: the “effect on reductase enzyme activity” value in data set [1] was “inhibition of enzyme activity”.

Regarding `CCCCCCCCCCCCCCCCCCCC(=O)SCCNC(=O)CCNC(=O)[C@H](O)C(C)(C)COP(=O)(O)OP(=O)(O)OC[C@H]1O[C@@H](n2cnc3c(N)ncnc32)[C@H](O)[C@@H]1OP(=O)(O)O` [20:0], in the data set on jojoba wax synthase, the “Wax synthase Activity, Acyl Group” value worked out at 49 pmol/min and the “Wax synthase Activity, Alcohol Group” value is 21 pmol/min.
